From patent publication US8133885B2, “Non steroidal glucocorticoid receptor modulators” (Merck Sharp & Dohme Corp., priority 2005, dated 2012) come the findings set out here.

pEC50: −log10 of the molar value. Like-named read-outs stand apart in the source and are kept apart here.

Assay [1] concerns the target T1, recombinant human-GR (GR) (Homo sapiens, UniProt P04150).
T1 construct: purchased PanVera
T1 sequence (P04150 1-777): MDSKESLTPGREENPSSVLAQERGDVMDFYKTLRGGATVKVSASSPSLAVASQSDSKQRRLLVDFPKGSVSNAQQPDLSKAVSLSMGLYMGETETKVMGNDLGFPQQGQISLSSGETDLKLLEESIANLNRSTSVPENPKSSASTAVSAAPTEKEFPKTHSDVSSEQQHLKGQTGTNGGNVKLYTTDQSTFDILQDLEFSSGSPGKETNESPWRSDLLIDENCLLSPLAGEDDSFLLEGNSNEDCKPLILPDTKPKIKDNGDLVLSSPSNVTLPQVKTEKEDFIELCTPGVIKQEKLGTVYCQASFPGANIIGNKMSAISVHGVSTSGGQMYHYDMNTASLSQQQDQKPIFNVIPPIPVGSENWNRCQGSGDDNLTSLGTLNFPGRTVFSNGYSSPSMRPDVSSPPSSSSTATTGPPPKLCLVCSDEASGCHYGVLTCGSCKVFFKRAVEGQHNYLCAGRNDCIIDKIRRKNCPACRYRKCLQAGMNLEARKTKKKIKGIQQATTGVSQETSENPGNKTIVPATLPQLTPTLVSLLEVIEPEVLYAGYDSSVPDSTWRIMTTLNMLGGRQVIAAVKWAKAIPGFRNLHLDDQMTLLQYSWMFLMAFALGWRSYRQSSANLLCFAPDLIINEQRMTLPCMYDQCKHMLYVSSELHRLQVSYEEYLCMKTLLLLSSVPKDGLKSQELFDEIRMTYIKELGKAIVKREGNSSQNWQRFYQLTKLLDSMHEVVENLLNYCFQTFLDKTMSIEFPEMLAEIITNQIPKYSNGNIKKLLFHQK
Description: Glucocorticoid Receptor Competitor Assay kit (PanVera), fluorescence polarisation binding. The conditions noted are these: fluorescence polarisation competition with fluormone GS1 1 nM, GR 4 nM, 90 minutes room temperature. On the procedure: The affinity of compounds was tested using a Glucocorticoid Receptor Competitor Assay kit (PanVera®). Components of the kit were thawed from −80° C. on ice (Fluormone GS1, recombinant human-GR (GR)) or at room temperature (GR screening buffer, stabilising peptide and DTT). 10 mM test compounds were manually diluted to 20 μM then serially diluted to a final concentration range of 10 μM to 0.1 nM using the BioMek 2000 (Beckman-Coulter) into a black walled 384 welled plate (Matrix technologies). In the following order: fluormone GS1 (1 nM final concentration) is added to all wells excluding the buffer control wells, GR (4 nM final concentration) is added to all wells except minimum and buffer control wells, cortisol (10 μM final concentration) is added to fluormone GS1 control wells only, buffer is added to all wells to a final volume of 40 μl. The plate is covered and incubated at room temperature with agitation for 90 minutes. Readings were taken using the Analyst (LJL) in fluorescence polarisation reading mode. The MilliP ratio is calculated from cps readings obtained in parallel and perpendicular mode. The percent effect of the bound ligand is calculated at each concentration and the dose response curves plotted allowing the EC50 to be calculated. […]
(In fluorescence polarisation assays a small probe gives low polarisation when free and higher when bound to something large.)

For a further assay, the system named is LPS-induced TNFα. The assay can be described thus: Inhibition of LPS-induced TNFα in serum of mice. The class given is in vivo. The conditions noted are these: Mus musculus, read-out: ED50 for inhibition of LPS-induced TNFα. On the procedure:
The potency of compounds to inhibit inflammation was quantified in a model in which mice were treated with lipopolysaccharide (LPS). Anti-inflammatory effects were quantified as inhibition of LPS-induced TNFα (S. R. Hyde & R. E. McCallum, Infection & Immunity, 60; 976-982 (1992)). Mice were treated i.p. with 0.5 mg/kg LPS. […] 1½ hours after LPS induction, serum was collected and mice were sacrificed. TNFα levels in serum were quantified using a commercially available Elisa-kit according to the descriptions of the supplier.

The mark [2] stands for this setting: mice, 0.5 mg/kg LPS i.p., compound oral or subcutaneous 1 hour before LPS, serum 1½ hours after LPS.

`CC#C[C@]1(O)CC[C@H]2[C@@H]3CCC4=CC(=O)CCC4=C3[C@@H](c3ccc4c(c3)OCO4)C[C@@]21C`: the pEC50 in assay [1] is 8.00.

On to `CN1c2ccccc2[C@@H]2C[C@@H](NC(=O)C(F)(F)F)CCN2c2ccc([N+](=O)[O-])cc21` (relative stereo) [Example 2, cis-2,2,2-trifluoro-N-(1,2,3,4,10,14b-hexahydro-10-methyl-8-nitrodibenzo[b,f]pyrido[1,2-d][1,4]diazepin-2-yl)acetamide], for which the ED50 in the assay with LPS-induced TNFα (setting [2]) is 0.5 to 20 mg/kg.

In the case of `CN1c2ccccc2[C@@H]2C[C@@H](NC(=O)C(F)(F)F)CCN2c2ccc(C#N)cc21` (relative stereo) [Example 3, cis-N-(8-cyano-1,2,3,4,10,14b-hexahydro-10-methyldibenzo[b,f]pyrido[1,2-d][1,4]diazepin-2-yl)-2,2,2-trifluoroacetamide], the ED50 in the assay with LPS-induced TNFα (setting [2]) lay within 0.5 to 20 mg/kg.

With `CN1c2ccccc2[C@@H]2C[C@@H](NC(=O)C(F)(F)F)CCN2c2ccc(C(=O)Nc3ccccc3)cc21` (relative stereo) [Example 4, cis-1,2,3,4,10,14b-hexahydro-10-methyl-N-phenyl-2-(2,2,2-trifluoroacetylamino)dibenzo[b,f]pyrido[1,2-d][1,4]diazepine-8-carboxamide], the ED50 in the assay on LPS-induced TNFα (setting [2]) lay within 0.5 to 20 mg/kg.

Consider `CN1c2ccccc2[C@@H]2C[C@@H](NC(=O)C(Cl)Cl)CCN2c2ccc(C#N)cc21` (relative stereo) [Example 5, cis-2,2-dichloro-N-(8-cyano-1,2,3,4,10,14b-hexahydro-10-methyldibenzo-[b,f]pyrido[1,2-d][1,4]diazepin-2-yl)acetamide], for which the ED50 in the assay on LPS-induced TNFα (setting [2]) is 0.5 to 20 mg/kg.

On to `CN1c2ccccc2[C@@H]2C[C@@H](NC(=O)C(F)(F)F)CCN2c2cc(Cl)c(C#N)cc21` (relative stereo) [Example 9, cis-N-(7-chloro-8-cyano-1,2,3,4,10,14b-hexahydro-10-methyl-dibenzo-[b,f]pyrido[1,2-d][1,4]diazepin-2-yl)-2,2,2-trifluoroacetamide], for which the ED50 in the assay with LPS-induced TNFα was 0.5 to 20 mg/kg.

For `Cc1nnsc1C(=O)N[C@H]1CCN2c3ccc([N+](=O)[O-])cc3N(C)c3ccccc3[C@@H]2C1` (relative stereo) [Example 31, cis-N-(1,2,3,4,10,14b-hexahydro-10-methyl-8-nitrodibenzo[b,f]pyrido[1,2-d][1,4]diazepin-2-yl)-4-methyl-1,2,3-thiadiazole-5-carboxamide], the ED50 in the assay with LPS-induced TNFα (setting [2]) was in the range of 0.5 to 20 mg/kg.

Regarding `C[C@]12C=CC(=O)C=C1CC[C@@H]1[C@@H]2[C@@H](O)C[C@@]2(C)[C@H]1CC[C@]2(O)C(=O)CO` [prednisolone, reference compound], the ED50 in the assay on LPS-induced TNFα (setting [2]) worked out at 0.5 mg/kg.

A word on the pEC50: it is the negative decadic logarithm of the EC50, by convention in mol/L. As usually defined, the ED50 is the dose that gives a 50% effect, or the effect in half of the subjects.
